Test results reported in ChEMBL document CHEMBL4346717, “1,2,4-Triazole-quinoline/quinolone hybrids as potential anti-bacterial agents” (Eur J Med Chem, 2019).

Tests used:
[1] = system: Mycolicibacterium smegmatis; test: Antibacterial activity against Mycobacterium smegmatis; format: functional
Enterococcus faecalis = test: Antibacterial activity against Enterococcus faecalis; format: functional
Pseudomonas aeruginosa [2] = test: Antibacterial activity against Pseudomonas aeruginosa; format: functional
Staphylococcus aureus [3] = test: Antibacterial activity against Staphylococcus aureus; format: functional
Bacillus cereus [4] = test: Antibacterial activity against Bacillus cereus; format: functional
Escherichia coli [5] = test: Antibacterial activity against Escherichia coli; format: functional
[6] = system: Yersinia pseudotuberculosis; test: Antibacterial activity against Yersinia pseudotuberculosis; format: functional
Aspergillus niger = test: Antifungal activity against Aspergillus niger assessed as zone of inhibition at 100 ug/ml; format: functional; settings: read-out: IZ
Aspergillus fumigatus = test: Antifungal activity against Aspergillus fumigatus assessed as zone of inhibition at 100 ug/ml; format: functional; settings: read-out: IZ
[7] = system: Aggregatibacter actinomycetemcomitans; test: Antibacterial activity against Aggregatibacter actinomycetemcomitans ATCC 29524 assessed as zone of inhibition at 10 mg/ml after 3 to 7 days by cup diffusion method; format: functional; settings: read-out: IZ
Bacillus subtilis [8] = test: Antibacterial activity against Bacillus subtilis after 3 to 7 days by cup diffusion method; format: functional; settings: Bacillus subtilis; read-out: MIC
[9] = system: Aggregatibacter actinomycetemcomitans; test: Antibacterial activity against Aggregatibacter actinomycetemcomitans ATCC 29524 after 3 to 7 days by cup diffusion method; format: functional; settings: Aggregatibacter actinomycetemcomitans, ATCC 29524; read-out: MIC
Escherichia coli [10] = test: Antibacterial activity against Escherichia coli assessed as zone of inhibition at 10 mg/ml after 3 to 7 days by cup diffusion method; format: functional; settings: read-out: IZ
Escherichia coli [11] = test: Antibacterial activity against Escherichia coli after 3 to 7 days by cup diffusion method; format: functional; settings: Escherichia coli; read-out: MIC
Pseudomonas aeruginosa [12] = test: Antibacterial activity against Pseudomonas aeruginosa assessed as zone of inhibition at 10 mg/ml after 3 to 7 days by cup diffusion method; format: functional; settings: read-out: IZ
Mycolicibacterium phlei [13] = test: Antibacterial activity against Mycobacterium phlei clinical isolate assessed as zone of inhibition at 10 mg/ml after 3 to 7 days by cup diffusion method; format: functional; settings: read-out: IZ
Staphylococcus aureus [14] = test: Antibacterial activity against Staphylococcus aureus assessed as zone of inhibition at 10 mg/ml after 3 to 7 days by cup diffusion method; format: functional; settings: read-out: IZ
Bacillus subtilis [15] = test: Antibacterial activity against Bacillus subtilis assessed as zone of inhibition at 10 mg/ml after 3 to 7 days by cup diffusion method; format: functional; settings: read-out: IZ
DNA gyrase = DNA gyrase (Escherichia coli, UniProt P0AES4+P0AES6); test: Inhibition of Escherichia coli DNA gyrase super-coiling activity using pBR322 DNA as substrate after 30 mins by fluorescence assay; format: protein-complex assay
Pseudomonas aeruginosa [16] = test: Antibacterial activity against Pseudomonas aeruginosa after 3 to 7 days by cup diffusion method; format: functional; settings: Pseudomonas aeruginosa; read-out: MIC
Staphylococcus aureus [17] = test: Antibacterial activity against Staphylococcus aureus after 3 to 7 days by cup diffusion method; format: functional; settings: Staphylococcus aureus; read-out: MIC
Mycolicibacterium phlei [18] = test: Antibacterial activity against Mycobacterium phlei clinical isolate after 3 to 7 days by cup diffusion method; format: functional; settings: Mycolicibacterium phlei; read-out: MIC
Pseudomonas aeruginosa [19] = test: Antibacterial activity against Pseudomonas aeruginosa assessed as zone of inhibition at 100 ug/ml; settings: read-out: IZ
Bacillus cereus [20] = test: Antibacterial activity against Bacillus cereus assessed as zone of inhibition at 100 ug/ml; format: functional; settings: read-out: IZ
Escherichia coli [21] = test: Antibacterial activity against Escherichia coli assessed as zone of inhibition at 100 ug/ml; settings: read-out: IZ
Escherichia coli [22] = test: Antibacterial activity against multi drug-resistant Escherichia coli; format: functional
Staphylococcus aureus [23] = test: Antibacterial activity against methicillin-resistant Staphylococcus aureus; format: functional
[24] = system: Staphylococcus epidermidis; test: Antibacterial activity against Staphylococcus epidermidis assessed as zone of inhibition at 100 ug/ml; settings: read-out: IZ

CCn1cc(C(=O)O)c(=O)c2cc(F)c(N3CCN(Cn4nc(N5CCN(c6ccc([N+](=O)[O-])cc6)CC5)n(-c5ccccc5)c4=S)CC3)cc21
0.03 to 0.99 µg/mL: MIC [1] | MIC (Enterococcus faecalis) | MIC (Pseudomonas aeruginosa [2]) | MIC (Staphylococcus aureus [3]) | MIC (Bacillus cereus [4]) | MIC (Escherichia coli [5]) | MIC [6]

CCn1cc(C(=O)O)c(=O)c2cc(F)c(N3CCN(Cn4nc(N5CCN(c6ccc([N+](=O)[O-])cc6)CC5)n(Cc5ccccc5)c4=O)CC3)cc21
0.03 to 0.99 µg/mL: MIC [1] | MIC (Enterococcus faecalis) | MIC (Pseudomonas aeruginosa [2]) | MIC (Staphylococcus aureus [3]) | MIC (Bacillus cereus [4]) | MIC (Escherichia coli [5]) | MIC [6]

OC(Cn1cncn1)(Cn1cncn1)c1ccc(F)cc1F [FLUCONAZOLE]
26 mm: zone of inhibition at 100 µg/mL (Aspergillus fumigatus)
29 mm: zone of inhibition at 100 µg/mL (Aspergillus niger)

Nn1c(S)nnc1Cn1c(=O)cc(-c2ccccc2)c2ccc(Cl)cc21
8 to 256 µg/mL: MIC (Pseudomonas aeruginosa [2]) | MIC (Staphylococcus aureus [3]) | MIC (Escherichia coli [5])

CCn1cc(C(=O)O)c(=O)c2cc(F)c(N3CCN(Cn4nc(N5CCN(c6ccc([N+](=O)[O-])cc6)CC5)n(-c5ccccc5)c4=O)CC3)cc21
0.03 to 0.99 µg/mL: MIC [1] | MIC (Enterococcus faecalis) | MIC (Pseudomonas aeruginosa [2]) | MIC (Staphylococcus aureus [3]) | MIC (Bacillus cereus [4]) | MIC (Escherichia coli [5]) | MIC [6]

CCn1cc(C(=O)O)c(=O)c2cc(F)c(N3CCN(Cn4nc(N5CCN(c6ccc([N+](=O)[O-])cc6)CC5)n(-c5ccc(F)cc5)c4=S)CC3)cc21
0.03 to 0.99 µg/mL: MIC [1] | MIC (Enterococcus faecalis) | MIC (Pseudomonas aeruginosa [2]) | MIC (Staphylococcus aureus [3]) | MIC (Bacillus cereus [4]) | MIC (Escherichia coli [5]) | MIC [6]

CCn1cc(-c2nc(NC(=O)c3ccccc3)n[nH]2)c(=O)c2cc(Br)c(C)nc21
20 to 40 mm: zone of inhibition at 10000 µg/mL [7] | zone of inhibition at 10000 µg/mL (Escherichia coli [10]) | zone of inhibition at 10000 µg/mL (Pseudomonas aeruginosa [12]) | zone of inhibition at 10000 µg/mL (Mycolicibacterium phlei [13]) | zone of inhibition at 10000 µg/mL (Staphylococcus aureus [14]) | zone of inhibition at 10000 µg/mL (Bacillus subtilis [15])
4.28 µM: IC50 (DNA gyrase)
3.68 to 6.3 µM: MIC (Bacillus subtilis [8]) | MIC [9] | MIC (Escherichia coli [11]) | MIC (Pseudomonas aeruginosa [16]) | MIC (Staphylococcus aureus [17]) | MIC (Mycolicibacterium phlei [18])

O=C(O)c1cn(C2CC2)c2cc(N3CCNCC3)c(F)cc2c1=O [CIPROFLOXACIN]
23 to 29 mm: zone of inhibition at 100 µg/mL (Pseudomonas aeruginosa [19]) | zone of inhibition at 100 µg/mL (Bacillus cereus [20]) | zone of inhibition at 100 µg/mL (Escherichia coli [21]) | zone of inhibition at 100 µg/mL [24]
0.25 to 8 µg/mL: MIC (Escherichia coli [22]) | MIC (Staphylococcus aureus [23])

Cc1ccc2c(-c3ccccc3)cc(=O)n(Cc3nnc(S)n3N)c2c1
8 to 256 µg/mL: MIC (Pseudomonas aeruginosa [2]) | MIC (Staphylococcus aureus [3]) | MIC (Escherichia coli [5])

CCn1c(N2CCN(c3ccc([N+](=O)[O-])cc3)CC2)nn(CN2CCN(c3cc4c(cc3F)c(=O)c(C(=O)O)cn4CC)CC2)c1=S
0.03 to 0.99 µg/mL: MIC [1] | MIC (Enterococcus faecalis) | MIC (Pseudomonas aeruginosa [2]) | MIC (Staphylococcus aureus [3]) | MIC (Bacillus cereus [4]) | MIC (Escherichia coli [5]) | MIC [6]

Nn1c(S)nnc1Cn1c(=O)cc(-c2ccccc2)c2cc(Cl)ccc21
8 to 256 µg/mL: MIC (Pseudomonas aeruginosa [2]) | MIC (Staphylococcus aureus [3]) | MIC (Escherichia coli [5])

Nn1c(S)nnc1Cn1c(=O)cc(-c2ccccc2)c2ccccc21
8 to 256 µg/mL: MIC (Pseudomonas aeruginosa [2]) | MIC (Staphylococcus aureus [3]) | MIC (Escherichia coli [5])

CCn1cc(C(=O)O)c(=O)c2cc(F)c(N3CCN(Cn4nc(N5CCN(c6ccc([N+](=O)[O-])cc6)CC5)n(Cc5ccccc5)c4=S)CC3)cc21
0.03 to 0.99 µg/mL: MIC [1] | MIC (Enterococcus faecalis) | MIC (Pseudomonas aeruginosa [2]) | MIC (Staphylococcus aureus [3]) | MIC (Bacillus cereus [4]) | MIC (Escherichia coli [5]) | MIC [6]

Cc1cccc2c(-c3ccccc3)cc(=O)n(Cc3nnc(S)n3N)c12
8 to 256 µg/mL: MIC (Pseudomonas aeruginosa [2]) | MIC (Staphylococcus aureus [3]) | MIC (Escherichia coli [5])

CC1(C)S[C@@H]2[C@H](NC(=O)[C@H](N)c3ccccc3)C(=O)N2[C@H]1C(=O)O [AMPICILLIN]
10 to 128 µg/mL: MIC [1] | MIC (Enterococcus faecalis) | MIC (Pseudomonas aeruginosa [2]) | MIC (Staphylococcus aureus [3]) | MIC (Bacillus cereus [4]) | MIC (Escherichia coli [5]) | MIC [6]

COc1ccc2c(-c3ccccc3)cc(=O)n(Cc3nnc(S)n3N)c2c1
8 to 256 µg/mL: MIC (Pseudomonas aeruginosa [2]) | MIC (Staphylococcus aureus [3]) | MIC (Escherichia coli [5])
